Laboratory results published in patent publication US20040234610A1, “Medical device and method for inhalation of aerosolized drug with heliox” (priority 2001, published 2004).
Where “and” joins values, the source holds several entries; their conditions need not be identical. Identical values can stand only once.

Columns and labels:
[1] = test system: adult patients with severe acute exacerbation of asthma; test: Same randomized study: vital signs, pulse oximetry, hospital admissions; assay type: in vivo, human; conditions: for % change HR post neb 1 / % change HR post neb 2 / % change HR post neb 3: mean ± SD; for Hospital admission rate: P=0.81
Description: The heliox delivery system consisted of a facemask connected to a Y-piece with the nebulizer (Airlife™ Misty-Neb™ Nebulizer) on one limb and a non-rebreather bag on the other limb (as shown in FIG. 1). Heliox flow to the nebulizer was set at 10 liters/minute (via an oxygen calibrated flow meter thus equivalent to 18 L/min Heliox flow). A separate flow of 10 liters/minute of heliox (via an oxygen calibrated flow meter thus equivalent to 18 L/min Heliox flow) was delivered to the non-rebreather bag. […] Each treatment continued until the nebulizer was dry—a period of approximately ten minutes, followed by a fifteen minute washout period. The total time for the study was approximately 90 minutes. Corticosteroid therapy for asthma exacerbations was directed by the emergency room physicians, who were not directly involved in the study.
Demographic data, chronic asthma medications, emergency room corticosteroid administration, vital signs (heart rate, mean arterial pressure, respiratory rate), oxygen saturation by pulse oximetry, emergency room length of stay and hospital admissions from the emergency room were recorded for all patients. Data are expressed as mean±SD when normally distributed and median (interquartile range) when not normally distributed. Interval data were compared using a two-tailed Student's t test or Mann Whitney U test according to normality of distribution, categorical data were compared using Chi square or Fisher Exact test when appropriate. […] The Student-Newman-Keuls test was used to compare differences between heliox and control groups after each nebulization treatment when appropriate. […] A 25% difference in percent change in FEV1 between the control and heliox groups was considered clinically important. Using a standard deviation of 28% (based on preliminary work), an a error of 0.05 and a β error of 0.20, it was estimated that a total of 42 patients (21 in each group) would be needed to avoid a type II error. […] In this situation, a P value of <0.0167 was considered to indicate statistical significance.

[2] = Nebulized particle size distribution by Anderson Cascade Impactor, RES-Q-Neb (T and Y design) vs HOPE nebulizer; assay type: physicochemical
Description: A study was conducted to compare the performance of two embodiments of the heliox nebulization system described herein (called the RES-Q-Neb™ Nebulizer) with a commercially available nebulizer (HOPE™, B&B Medical Technologies, Inc., Orangevale, Calif., USA) that is driven by air.
Measurements were done using an Anderson Cascade Impactor (ACI) operated at an air flow rate of 28.3 L/min. The nebulizers were connected one at a time to the same tee piece and collar. The ACI consisted of eight stages, a backup filter, and an inlet (USP throat).
Gas flows through the nebulizers and impactor were controlled with rotameters, which were set with the DryCal Flow Calubrator (BIOS International Co., Pomton Plains, N.J.).
Heliox (80% helium, 20% oxygen) at 18 L/min was used to drive the RES-Q-Neb Nebulizer and another 18 L/min of the heliox was introduced into the system at the reservoir bag side port. […] The HOPE nebulizer was driven with compressed air at 10 L/min (as directed in its included label and instructions), and 18 L/min of heliox was introduced into the system at a side port, as shown in FIG. 10.
A pre-running time was used for each test to stabilize the generation of aerosol. The RES-Q-Neb nebulizer was pre-run for 15 s, and the HOPE nebulizer was pre-run for 30 s. Six tests were run with the RES-Q-Neb nebulizer at the same conditions (3 with the “Y” adaptor and 3 with the “T” adaptor) and five tests were run with the HOPE nebulizer at the same conditions.
After each test, the ACI and empty nebulizers were disassembled and washed with deionized water. The wash water was collected and the amount of drug remaining or collected was determined using spectrophotometric analysis at 224 nm.
The particle sizes are expressed as 50% mass median aerodynamic diameters (MMAD).

[3] = HOPE nebulizer, compressed air 10 L/min nebulizer + heliox 18 L/min side port
[4] = HOPE nebulizer, compressed air 10 L/min nebulizer + heliox 18 L/min side port, mean of 5 tests
[5] = HOPE nebulizer, compressed air 10 L/min nebulizer + heliox 18 L/min side port, single tests, listed as Albuterol sulfate
[6] = RES-Q-Neb T design, heliox 18 L/min nebulizer + 18 L/min side port
[7] = RES-Q-Neb T design, heliox 18 L/min nebulizer + 18 L/min side port, mean of 3 tests
[8] = RES-Q-Neb T design, heliox 18 L/min nebulizer + 18 L/min side port, single tests, listed as Albuterol sulfate
[9] = RES-Q-Neb Y design, heliox 18 L/min nebulizer + 18 L/min side port (18-18 lpm)
[10] = RES-Q-Neb Y design, heliox 18 L/min nebulizer + 18 L/min side port, mean of 3 tests
[11] = RES-Q-Neb Y design, heliox 18 L/min nebulizer + 18 L/min side port, single tests, listed as Albuterol sulfate

## CC(C)(C)NCC(O)c1ccc(O)c(CO)c1 (stereo not shown) [albuterol]
[1]; MAP, RR, SpO2, at any point during the study
  differences in other vital signs or pulse oximetry, heliox vs control: no other significant differences in any vital signs or in pulse oximetry between the groups
[1]; control (oxygen)
  % change HR post neb 1: −8.7 ± 7.4%
  % change HR post neb 2: −4.6 ± 8.7%
  % change HR post neb 3: −2.7 ± 12.7%
[1]; control group (oxygen)
  Hospital admission rate: 6 of 22
[1]; heliox group
  Hospital admission rate: 6 of 23
[1]; heliox, P 0.01 vs control
  % change HR post neb 1: −0.9 ± 7.8%
  % change HR post neb 3: 5.6 ± 12.0%
[1]; heliox, P 0.08 vs control
  % change HR post neb 2: 1.0 ± 11.3%
[2]; [3]
  0.7 ≦ Mean Fraction < 5.8 μm: 0.503
  Mean Fraction < 0.7 μm: 0.052
  Mean Fraction at Midpoint = 1.52 μm: 0.227
  Mean Fraction ≧ 5.8 μm: 0.446
[2]; [4]
  Mean Fraction, Collar: 0.009
  Mean Fraction, Filter (cut-size <0.4 micron): 0.015
  Mean Fraction, Stage 0 (cut-size 9 micron): 0.110
  Mean Fraction, Stage 1 (cut-size 5.8 micron): 0.151
  Mean Fraction, Stage 2 (cut-size 4.7 micron): 0.044
  Mean Fraction, Stage 3 (cut-size 3.3 micron): 0.099
  Mean Fraction, Stage 4 (cut-size 2.1 micron): 0.119
  Mean Fraction, Stage 5 (cut-size 1.1 micron): 0.227
  Mean Fraction, Stage 6 (cut-size 0.7 micron): 0.014
  Mean Fraction, Stage 7 (cut-size 0.4 micron): 0.037
  Mean Fraction, Tee Piece: 0.060
  Mean Fraction, Throat (cut-size >9 micron): 0.034
  Mean Fraction, Tube: 0.082
[2]; [5]
  Fraction, Stage 1 (cut-size 5.8 micron): 0.139 and 0.164 and 0.154 and 0.138 and 0.160
  Fraction, Stage 2 (cut-size 4.7 micron): 0.039 and 0.047 and 0.044 and 0.045
  Fraction, Stage 3 (cut-size 3.3 micron): 0.088 and 0.110 and 0.109 and 0.090 and 0.099
  Fraction, Tee Piece: 0.066 and 0.056 and 0.058 and 0.052 and 0.069
  Fraction, Throat (cut-size >9 micron): 0.033 and 0.037 and 0.036 and 0.030 and 0.035
  Fraction, Tube: 0.105 and 0.077 and 0.073 and 0.081 and 0.074
[2]; [6]
  0.7 ≦ Mean Fraction < 5.8 μm: 0.697
  Mean Fraction < 0.7 μm: 0.218
  Mean Fraction at Midpoint = 1.52 μm: 0.519
  Mean Fraction ≧ 5.8 μm: 0.086
  mean output rate: 0.54 mL/min
[2]; [7]
  Mean Fraction, Adapter: 0.033
  Mean Fraction, Collar: 0.008
  Mean Fraction, Filter (cut-size <0.4 micron): 0.044
  Mean Fraction, Stage 0 (cut-size 9 micron): 0.010
  Mean Fraction, Stage 1 (cut-size 5.8 micron): 0.015
  Mean Fraction, Stage 2 (cut-size 4.7 micron): 0.005
  Mean Fraction, Stage 3 (cut-size 3.3 micron): 0.009
  Mean Fraction, Stage 4 (cut-size 2.1 micron): 0.061
  Mean Fraction, Stage 5 (cut-size 1.1 micron): 0.519
  Mean Fraction, Stage 6 (cut-size 0.7 micron): 0.103
  Mean Fraction, Stage 7 (cut-size 0.4 micron): 0.174
  Mean Fraction, T-Piece: 0.017
  Mean Fraction, Throat (cut-size >9 micron): 0.003
[2]; [8]
  Fraction, Filter (cut-size <0.4 micron): 0.037 and 0.049 and 0.045
  Fraction, Stage 7 (cut-size 0.4 micron): 0.148 and 0.166 and 0.207
[2]; RES-Q-Neb Y design, heliox 18 L/min nebulizer + 18 L/min side port
  mean output rate: 0.59 mL/min
[2]; [9]
  0.7 ≦ Mean Fraction < 5.8 μm: 0.657
  Mean Fraction < 0.7 μm: 0.239
  Mean Fraction at Midpoint = 1.52 μm: 0.422
  Mean Fraction ≧ 5.8 μm: 0.105
[2]; [10]
  Mean Fraction, Adapter: 0.040
  Mean Fraction, Collar: 0.009
  Mean Fraction, Filter (cut-size <0.4 micron): 0.053
  Mean Fraction, Stage 0 (cut-size 9 micron): 0.012
  Mean Fraction, Stage 1 (cut-size 5.8 micron): 0.019
  Mean Fraction, Stage 2 (cut-size 4.7 micron): 0.007
  Mean Fraction, Stage 3 (cut-size 3.3 micron): 0.010
  Mean Fraction, Stage 4 (cut-size 2.1 micron): 0.072
  Mean Fraction, Stage 5 (cut-size 1.1 micron): 0.422
  Mean Fraction, Stage 6 (cut-size 0.7 micron): 0.146
  Mean Fraction, Stage 7 (cut-size 0.4 micron): 0.186
  Mean Fraction, Throat (cut-size >9 micron): 0.004
  Mean Fraction, Y-Piece: 0.021
[2]; [11]
  Fraction, Filter (cut-size <0.4 micron): 0.056 and 0.060 and 0.043
  Fraction, Stage 1 (cut-size 5.8 micron): 0.014 and 0.023 and 0.020
  Fraction, Stage 6 (cut-size 0.7 micron): 0.148 and 0.144
  Fraction, Stage 7 (cut-size 0.4 micron): 0.169 and 0.180 and 0.208
  Fraction, Y-Piece: 0.026 and 0.022 and 0.015
[2]; less than HOPE
  less particles >5.8 μm, present device/method vs HOPE nebulizer: approximately 34%
[2]; more than HOPE
  greater fraction of particles ≥0.7 and <5.8 μm (breathable range), present device/method vs HOPE nebulizer: approximately 20%
  more particles <0.7 μm, present device/method vs HOPE nebulizer: about 15%
  more particles with a midpoint diameter of 1.52 μm, present device/method vs HOPE nebulizer: approximately 22%
